In patent publication US20200093751A1, “CHEMOPROTECTIVE/CHEMOACTIVE NANODROPLETS AND METHODS OF USE THEREOF” (priority 2016, published 2020):

Experiments:
[1] = test system: NCI-H460 human lung cancer model; assay: Tumor growth inhibition in NCI-H460 human lung cancer model in nude mice; assay type: in vivo; details: TAXOTERE 15 mg/kg tail vein once per week, two injections; treatment ended on 13th day
Description: NCI-H460 cell suspensions were injected subcutaneously on the backs of mice to establish a tumor model. When tumor volume reached approximately 50 mm^3, groups of tumor-bearing mice (n=5) were injected through the tail vein once per week for a total of two weeks with a dose of 15 mg/kg per animal for TAXOTERE® or 30 mg/kg per animal twice per week for three weeks for Tonp nanodroplets. On the 20th day, the tumor growth inhibition of d-T3 (Tonp) treatment was 70%.
NCI-H460 cell suspensions were injected subcutaneously on the backs of mice to establish the tumor model. […] The Tonp was injected one day before TAXOTERE® starting just before the second injection of TAXOTERE®.
NCI-H460 human lung cancer cells were injected subcutaneously on the backs of nude mice to establish a tumor model. When tumor volume reached approximately 50 mm^3, mice were divided into treatment groups, which typically consisted of five mice.
In one experiment, tumor-bearing mice were either left untreated, were treated with TAXOTERE®, or were treated with Tonp nanodroplets. Mice were injected through the trail vein once per week with 15 mg/kg of TAXOTERE® or twice per week for three weeks with a dose of 30 mg/kg of Tonp.
One group of tumor-bearing mice was injected with TAXOTERE® through the tail vein once per week at a dose of 15 mg/kg per animal. […]

[2] = Toxicity / chemoprotective effect (body weight) in NCI-H460 tumor-bearing nude mice; assay type: in vivo
Description: When tumor volume reached approximately 50 mm^3, groups of tumor-bearing mice (n=5) were injected through the tail vein twice per week for a total of three weeks with a dose of 30 mg/kg per animal.
When tumor volume reached approximately 50 mm^3, groups of tumor-bearing mice (n=5) were injected through the tail vein twice per week for a total of three weeks with a dose of 30 mg/kg per animal of Tonp or once per week with a dose of 15 mg/kg per animal of TAXOTERE®.
The Tonp was injected one day before TAXOTERE® starting just before the second injection of TAXOTERE®.
Toxicity of the nanodroplet formulations was further assessed with respect to groups of mice with tumors. NCI-H460 human lung cancer cells were injected subcutaneously on the backs of nude mice to establish a tumor model. When tumor volume reached approximately 50 mm^3, mice were divided into treatment groups, which typically consisted of five mice. Mice were injected through the tail vein twice per week for three weeks with 30 mg/kg of Tonp or once per week with a dose of 15 mg/kg of TAXOTERE®.
One group of tumor-bearing mice was injected with TAXOTERE® through the tail vein once per week at a dose of 15 mg/kg per animal. […] Tonp, when used, was injected one day before TAXOTERE® starting just before the second injection of TAXOTERE®.

In the case of `CC(=O)O[C@@]12CO[C@@H]1C[C@H](O)[C@@]1(C)C(=O)[C@H](O)C3=C(C)[C@@H](OC(=O)[C@H](O)[C@@H](NC(=O)OC(C)(C)C)c4ccccc4)C[C@@](O)([C@@H](OC(=O)c4ccccc4)[C@H]21)C3(C)C` [TAXOTERE®, docetaxel], the tumor growth inhibition [1] is reported as 71%, the “body weight after about two weeks of treatment” value ([2]; TAXOTERE 15 mg/kg once per week) is reported as “significantly decreased in body weight” and the “body weight after two injections of TAXOTERE” value ([2]; TAXOTERE 15 mg/kg once per week without Tonp, treatment ended on 13th day) is reported as “severe body weight drop”.
